Measurements as given in patent US6916789B2, “Peyer's patch and/or M-cell targeting ligands” (Merrion Research I Limited, priority 2001, dated 2005).
Where no end group is shown, it is not given here. [ ]: non-standard residue; d: D form.

Columns and labels:
M-cells = assay: Peptide coated fluorescent polystyrene particles in mouse intestinal loops, confocal microscopy; format: in vivo; conditions: fluorescent polystyrene particles (0.289 μm), 30 minutes incubation in loops
Experimental: Biotinylated SEQ ID NO:40 was adsorbed to the surface of fluorescent polystyrene particles (0.289 μm) using routine methodologies at room temperature. Mouse intestinal loops containing one or more polystyrene suspensions (typically 300 μl containing 5.0×10^10 particles per ml) were incubated for 30 minutes. The Peyer's patches were excised, fixed in methanol and the M cells were counter-stained with UEA1-rhodamine for subsequent analysis by confocal microscopy. Stained tissues were examined on a BioRad MRC 600 confocal laser-scanning microscope.

Caco-2 homogenates [1] = assay: Synthetic peptide ELISA-based binding to Caco-2 homogenates (streptavidin-peroxidase detection); design: species or system human
Experimental: In order to prepare the Caco-2 cell membrane and cytosolic fractions, confluent Caco-2 cell monolayers (grown in 75 cm^2 flasks for up to 1 week at 37° C. and 5% CO2) were washed twice in Dulbecco's PBS (DPBS). The cell monolayers were then treated with 10 mM EDTA-DPBS for 5-10 minutes at 37° C. and the cells were harvested by centrifugation at 1000 rpm for 5 minutes. The cells were then washed 3×in DPBS. The cell pellet was resuspended in 3 volumes of ice-cold HED buffer (20 mM HEPES (pH 7.67), 1 mM EGTA, 0,5 mM dithiothreitol, 1 mM phenylmethylsuphonyl fluoride (PMSF)) and the cells were allowed to swell for 5 minutes on ice. The cells were then homogenized for 30 seconds. The cell homogenates were then centrifuged in hard walled tubes at 40,000 rpm for 45 minutes at 4° C. (ultracentrifuge Ti90 rotor). The supernatant was removed and the pellet resuspended in HEDG buffer (20 mM HEPES (pH 7.67), 1 mM EGTA, 0.5 mM dithiothreithol, 100 mM NaCl, 10% glycerol, 1 mM PMSF). Three volumes of buffer were then added and the pellet was resuspended and centrifuged again at 1000 rpm for 2 minutes. The supernatant was removed and stored on ice. The procedure was repeated adding the second supernatant to the first and then the procedure was repeated 2-3 more times. The protein concentration was determined using the Bio-Rad protein assay. All fractions were stored at −80° C.
Peptide sequences (SEQ ID NOs: 3, 4, 5, 7, 8, 9, 10, 11, 14, 15, 16, 17, 19, 20, 26, 28, 29, 30) were synthesized with biotin tags at the amino terminal for all peptides and additionally at the carboxyl terminal for SEQ ID NOs:8 and 14. Binding of these peptides to Caco-2 homogenates and/or to rat intestinal tissue homogenates was tested in an ELISA-based assay with streptavidin-peroxidase detection. […] (See FIGS. 13A-13N).

Caco-2 homogenates [2] = assay: Peptide coated particles ELISA-based binding to Caco-2 homogenates; design: species or system human; conditions: peptide adsorbed to streptavidin particles (0.289 μm)
Experimental: Several phage-derived peptides (SEQ ID NOs: 25, 31, 32, 33, and 40) were adsorbed to streptavidin particles (0.289 μm). Peptide coated particles were tested in an ELISA-based assay for binding to Caco-2 homogenates. […] In addition, when one double-mutant peptide ligand (SEQ ID NO:33), is adsorbed to polystyrene particles binding that is approximately 60% of that of the parent peptide is observed (See FIGS. 19A-19B).

## yqcsytmphppv ([dY][dQ][dC][dS][dY][dT][dM][dP][dH][dP][dP][dV]) [SEQ ID NO:40]
M-cells
  binding and uptake of peptide coated particles: binding and uptake into M-cells
Caco-2 homogenates [1]; ELISA, intestinal epithelial tissue, FIGS. 17A-17B Caco-2 homogenates
  binder category / binding to epithelium: retained high binding
Caco-2 homogenates [1]; Tables 9 and 10
  Binding Assay results (Caco-2), Kd: (Kd˜10 μg/ml)
Caco-2 homogenates [2]
  binding of peptide coated particles: Binding was retained
